Measured values taken from patent publication US20170340636A1, “COMPOSITIONS AND METHODS FOR INHIBITION OF AUTOPHAGY” (Board of Regents, The University of Texas System, priority 2016, published 2017).

How the values were obtained:
TAOK2 [1] = target: T1, TAOK2 (Rattus norvegicus, UniProt Q9JLS3); assay: Kinase-Glo high-throughput screen / re-screen of TAOK2 activity (MBP substrate); format: biochemical; conditions: estimate from HTS re-screen at 1, 3.3 and 10 μM
T1 construct: made in house
T1 sequence (Q9JLS3 1-320 limits assumed): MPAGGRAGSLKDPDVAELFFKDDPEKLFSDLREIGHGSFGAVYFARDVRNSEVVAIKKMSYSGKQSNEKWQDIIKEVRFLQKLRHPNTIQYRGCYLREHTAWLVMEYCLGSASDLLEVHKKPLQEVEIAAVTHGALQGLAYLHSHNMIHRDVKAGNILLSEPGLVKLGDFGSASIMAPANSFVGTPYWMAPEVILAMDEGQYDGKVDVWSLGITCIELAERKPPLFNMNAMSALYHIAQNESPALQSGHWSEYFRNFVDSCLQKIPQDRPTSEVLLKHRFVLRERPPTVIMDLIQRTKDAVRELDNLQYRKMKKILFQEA
Protocol: TAOK2 activity was screened in a high-throughput fashion using Kinase-Glo (Promega). A 20 μL, solution of 50 mM HEPES pH 7.4, 50 mM MgCl2, 1.27 mg/ml MBP and 0.005 mg/ml TAOK2 was added to each well of a 384 well Corning plate using a Biotek MultiFlo dispenser. 0.2 μl of compound (columns 3 to 22, 50 μM), DMSO negative control (columns 2, 23, and 24), or staurosporine positive control (column 1, 43.4 μM) were then added to each well with a Biomek Liquid handler. 10 μl of 50 μg/ml ATP solution was added to each well with a Labsystems Multidrop384. The plates were incubated at RT for 100 minutes. 20 μl Kinase Glo (Promega) was added to each well, and allowed to incubate for 10minutes under agitation. Luminescence was read on an Envision Multilabel plate reader.
After cherry picking primary hits, the selected compounds were assayed in a limited dose-response format (10, 3.3, and 1 μM) in triplicate using the primary enzymatic assay for TAOK2. The data for each assay well was normalized to the neutral controls. The normalized activity values (replicates) for each compound in each assay were then condensed to a single value (condensed activity) using the “Robust Condensing” method in Genedata Screener®. The condensed activity is the most representative single value of the triplicates. In general, the triplicates were pre-condensed into a pair of values as follows:
In order to study the relationship between TAOK2 and both cancer and autophagy, a high-throughput screen was performed using a 200,000 compound library to discover novel small-molecule kinase inhibitors (FIG. 1A-D). Phosphorylation reactions were performed in a 384 well format against the generic kinase substrate Myelin Basic Protein (MBP) with the addition of compound. Kinase-Glo (Promega) was then added to each well to detect remaining ATP concentration. Thus, inhibitory compounds would decrease TAOK2 activity, which would increase both remaining ATP concentration and luminescence in those wells.
After the initial screen, 1645 compounds were identified with inhibition greater than three σ above the mean DMSO control (FIG. 1A). The Z′ factor of the initial screen across all plates was 0.77, indicating high significance (FIG. 1B). These compounds were then re-screened in triplicate under the same conditions, with the compounds being assayed at three concentrations (1 μM, 3.3 μM, and 10 μM, FIG. 1C, D). 432 compounds were identified after the re-screen with average inhibitions greater than 10 sigma at the 10 μM concentration. The Z′ factor of the confirmation screen was 0.52, again indicating high significance.

TAOK2 [2] = target: T1, TAOK2; assay: Differential scanning fluorimetry (DSF) binding assay against TAOK2; conditions: DSF melt temperature shift of TAOK2, 5 μM TAOK2, compound 1 μM
Protocol: (§1) Differential scanning fluorimetry binding assays of selected compounds against TAOK2 were conducted to measure strength of compound binding. A solution of 5 μM TAOK2, 50 mM MgCl2, 50 mM HEPES pH 7.5, and 2.5x SyproOrange(Life Technologies) was made. Compound was added to a final concentration of 1 μM. 25 μl of the reaction solution was added to the wells of a Biorad Multiplate 96 wellclear PCR plate. The plate was covered with a Biorad Microseal ‘B’ seal. Plates were read in a Biorad CFX96 Real-Time PCR system. The temperature was increased from 4° C. to 80° C., with fluorescence measurements being taken every 0.5° C. in the 6-FAM Fluorescein channel. The fluorescence response to heat curve was fit to a binding isotherm in order to determine the inflection point, which was taken as the melt temperature (Tm).
The prevalence of multiple heterocycles in the compounds is reflective of the composition of the screen (described in Methods in Supplemental Material). These 13 compounds were purchased from Chembridge Inc. and ChemDiv Inc. for measurement of direct binding using Differential Scanning Fluorimetry (DSF). DSF measures protein melt temperature (Tm) with a lipophilic dye (SyproOrange). As the temperature of the solution is increased, measurements of dye fluorescence are taken. When the protein begins to denature, hydrophobic regions in the protein are exposed, and the dye is able to bind. This binding insulates the dye from the surrounding water, reducing quenching effects and allowing fluorescence. Binding of small molecules to protein has a stabilizing effect, and this is seen by an increase in melt temperature (Table 1). The ΔTm values ranged from 3.0 to −0.6° C. The three compounds with the highest positive shifts were SW034538, SW163112, and SW083688, with 3° C., 2.2° C., and 2° C. shifts, respectively.

ASK1 = target: T2, ASK1 (Homo sapiens, UniProt Q99683); assay: DSF against ASK1 (selectivity panel of MAPK cascade members); format: binding; conditions: difference between the TAOK2 ΔTm and that of ASK1, DSF
T2 sequence (Q99683 1-1374): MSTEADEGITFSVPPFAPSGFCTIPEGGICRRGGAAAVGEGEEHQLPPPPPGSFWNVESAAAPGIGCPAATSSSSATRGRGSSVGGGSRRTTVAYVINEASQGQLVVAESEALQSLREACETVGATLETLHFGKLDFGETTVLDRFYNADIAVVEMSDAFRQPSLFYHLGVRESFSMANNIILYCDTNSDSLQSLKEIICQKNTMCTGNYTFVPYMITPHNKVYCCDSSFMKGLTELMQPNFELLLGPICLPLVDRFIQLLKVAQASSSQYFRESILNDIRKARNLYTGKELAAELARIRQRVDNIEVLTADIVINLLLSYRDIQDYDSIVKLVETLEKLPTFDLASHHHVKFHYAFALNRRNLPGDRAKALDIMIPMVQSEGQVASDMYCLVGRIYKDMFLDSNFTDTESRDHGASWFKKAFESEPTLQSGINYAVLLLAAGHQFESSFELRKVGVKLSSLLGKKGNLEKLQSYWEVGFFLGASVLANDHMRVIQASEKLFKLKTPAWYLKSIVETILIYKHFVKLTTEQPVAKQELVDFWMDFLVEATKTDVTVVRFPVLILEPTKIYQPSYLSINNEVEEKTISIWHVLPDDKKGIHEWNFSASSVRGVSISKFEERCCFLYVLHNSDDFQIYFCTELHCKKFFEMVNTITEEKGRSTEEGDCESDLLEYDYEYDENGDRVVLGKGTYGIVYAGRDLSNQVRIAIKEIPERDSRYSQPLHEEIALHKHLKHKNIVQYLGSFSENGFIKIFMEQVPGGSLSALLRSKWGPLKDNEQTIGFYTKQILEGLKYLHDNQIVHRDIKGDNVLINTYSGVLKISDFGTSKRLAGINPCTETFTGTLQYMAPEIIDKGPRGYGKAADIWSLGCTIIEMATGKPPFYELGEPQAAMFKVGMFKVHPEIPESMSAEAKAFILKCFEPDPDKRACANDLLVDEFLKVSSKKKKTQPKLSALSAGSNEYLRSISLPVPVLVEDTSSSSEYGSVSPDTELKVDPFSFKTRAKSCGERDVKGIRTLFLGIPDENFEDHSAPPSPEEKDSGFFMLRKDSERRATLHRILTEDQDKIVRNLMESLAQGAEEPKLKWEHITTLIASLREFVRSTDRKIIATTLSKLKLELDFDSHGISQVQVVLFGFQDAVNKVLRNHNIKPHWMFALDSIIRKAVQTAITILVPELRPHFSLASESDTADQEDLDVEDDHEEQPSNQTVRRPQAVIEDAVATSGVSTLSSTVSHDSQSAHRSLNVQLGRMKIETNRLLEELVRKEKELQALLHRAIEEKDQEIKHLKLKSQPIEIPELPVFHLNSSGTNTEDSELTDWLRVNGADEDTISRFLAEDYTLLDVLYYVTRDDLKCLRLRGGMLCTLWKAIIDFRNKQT
Protocol: as §1
(§2) The difference between the TAOK2 ΔTm and that of p38 and ASK1 was determined. […] The majority of the other compounds were also preferentially inhibitory toward TAOK2. Of the 13 compounds, SW034538, SW172006 and SW083688 were cross-verified for selectivity by performing a specificity screen against 45 kinases commercially at Eurofins Cerep, Inc. (FIG. 3).

p38 = p38 (Homo sapiens, UniProt Q16539); assay: DSF against p38 (selectivity panel of MAPK cascade members); format: binding; conditions: for ΔΔTm (p38): difference between the TAOK2 ΔTm and that of p38, DSF
Protocol: as §1, §2

Sequence of p38 (Q16539 whole entry): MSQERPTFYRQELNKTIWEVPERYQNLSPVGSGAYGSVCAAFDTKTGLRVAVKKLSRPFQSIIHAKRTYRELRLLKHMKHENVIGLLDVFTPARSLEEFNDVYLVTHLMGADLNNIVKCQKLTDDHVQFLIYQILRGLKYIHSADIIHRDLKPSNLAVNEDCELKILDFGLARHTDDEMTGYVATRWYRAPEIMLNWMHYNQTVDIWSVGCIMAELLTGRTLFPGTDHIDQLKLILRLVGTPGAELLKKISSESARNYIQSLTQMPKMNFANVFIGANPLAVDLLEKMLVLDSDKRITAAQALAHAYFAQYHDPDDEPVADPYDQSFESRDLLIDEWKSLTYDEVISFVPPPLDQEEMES

| Compound | IC50 (TAOK2 [1]) [nM] | ΔTm (TAOK2 [2]) [°C] | ΔΔTm (ASK1) (ASK1) [°C] | ΔTm with respect to p38 (p38; DSF cross-reactivity with p38) [°C] | ΔΔTm (p38) (p38) [°C] |
| --- | --- | --- | --- | --- | --- |
| Cc1cccc(NC(=S)N/N=C/c2c[nH]c3ccccc23)c1 [SW109820] | 1000 | 0.5 | – | – | – |
| CCc1ccccc1Nc1ncc(-c2sc(NC(C)=O)nc2C)s1 [SW034513] | 3000 | 0.1 | – | – | – |
| O=C(NCC1COc2ccccc2O1)c1ccc2c(=O)n(Cc3ccco3)c(=S)[nH]c2c1 (stereo not shown) [SW083604] | 600 | 1.2 | 1.1 | 0.9 | 0.3 |
| Cc1ccc(NCCCC(=O)N/N=C/c2cc(Br)cc(Br)c2O)cc1 [SW106178] | 6000 | 1.6 | 1.2 | – | 1.3 |
